Reference: patent US20110319432A1 (priority 2009, published 2011)
Read-outs that look alike come from different tables or passages of the source.

System: Phytophthora infestans
Type: cell-based
Settings: MTP, absorption 405 nm, 7 days after inoculation, 18° C

## CCCCCCCCc1c(CC)nc2ncnn2c1N [5-Ethyl-6-octyl-[1,2,4]triazolo[1,5-a]pyrimidin-7-ylamine]
0.25 ppm
  Observed efficacy: 31%

## O=C(NCCc1ncc(C(F)(F)F)cc1Cl)c1ccccc1C(F)(F)F [Fluopyram]
0.016 ppm
  Observed efficacy: 5%
0.063 ppm
  Observed efficacy: 5%
